Where “and” joins values, the source holds several entries; their conditions need not be identical. Equal entries are not always repeated. Entries after “also recorded” stand apart in the source; their conditions may differ.
Columns and labels:
[1] = target: human OPRM (μ-opioid receptor) (Homo sapiens, UniProt P35372); experiment: biochemical; format: binding; parameters: expressed in transfected cells; host or cells: CHO-K1 (cell lines provided by Dr. Toll, Torrey Pines Institute)
[2] = Treatment emergent adverse events in opioid-dependent participants (Phase IB)
[3] = tested on: human OPRK (κ-opioid receptor); experiment: biochemical; format: binding; conditions: ΔpKi = pKi(OPRK)-pKi(OPRM)
[4] = target: T1, human OPRK (κ-opioid receptor) (Homo sapiens, UniProt P41145); experiment: biochemical; format: binding; conditions: Ki, OPRK, [3H]-U69,593 binding; This work
T1 construct: purchased PerkinElmer Life Sciences (Boston, Mass.)
T1 sequence (P41145 whole entry): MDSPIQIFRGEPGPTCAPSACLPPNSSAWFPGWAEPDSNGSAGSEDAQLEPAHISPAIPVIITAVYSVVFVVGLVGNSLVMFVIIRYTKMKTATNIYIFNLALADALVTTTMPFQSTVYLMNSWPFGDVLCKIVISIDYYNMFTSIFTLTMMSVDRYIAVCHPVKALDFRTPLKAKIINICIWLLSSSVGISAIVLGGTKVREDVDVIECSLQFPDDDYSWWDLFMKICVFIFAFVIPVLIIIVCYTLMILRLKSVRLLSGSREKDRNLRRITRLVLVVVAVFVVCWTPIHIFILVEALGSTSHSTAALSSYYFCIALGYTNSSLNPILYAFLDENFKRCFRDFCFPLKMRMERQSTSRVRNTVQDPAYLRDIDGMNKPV

human OPRM [5] = target: T2, human OPRM (Homo sapiens, UniProt P35372); experiment: biochemical; format: biochemical; parameters: expressed in transfected cells; host or cells: CHO-K1 (cell lines provided by Dr. Toll, Torrey Pines Institute)
T2 sequence (P35372 whole entry): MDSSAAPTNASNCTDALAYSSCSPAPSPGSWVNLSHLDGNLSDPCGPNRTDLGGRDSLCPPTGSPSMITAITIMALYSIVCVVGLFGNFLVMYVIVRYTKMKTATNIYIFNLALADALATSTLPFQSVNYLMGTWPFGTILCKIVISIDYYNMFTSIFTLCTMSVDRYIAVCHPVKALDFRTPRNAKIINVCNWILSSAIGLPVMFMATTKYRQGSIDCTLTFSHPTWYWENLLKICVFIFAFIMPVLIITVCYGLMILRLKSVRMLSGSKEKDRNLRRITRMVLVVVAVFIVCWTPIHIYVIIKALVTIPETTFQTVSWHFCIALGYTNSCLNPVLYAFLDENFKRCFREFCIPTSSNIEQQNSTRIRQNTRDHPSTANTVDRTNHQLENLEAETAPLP

[6] = Safety and tolerability of noribogaine in healthy humans; format: in vivo, human
Experimental: Safety and tolerability of noribogaine were tested in the group of volunteers from Example 1. Cold pressor testing was conducted in 1° C. water according to the method of Mitchell et al. (J. Pain 5:233-237, 2004) pre-dose, 6, 24, 48, 72 and 216 hours post-dosing. Safety evaluations included clinical monitoring, recording of adverse events (AEs), safety laboratory tests, vital signs, ECG telemetry from −2 h to 6 h after dosing, and 12-lead electrocardiograms (ECGs) up to 216 hours post-dosing.

human OPRM [7] = target: T2, human OPRM; experiment: cell-based; format: cell-based; parameters: host or cells: CHO-K1
OPRK [8] = target: T3, OPRK (Homo sapiens, UniProt P41145); experiment: biochemical; parameters: purchased PerkinElmer Life Sciences (Boston, Mass.)
T3 sequence (P41145 whole entry): as the sequence (P41145 whole entry) above

OPRK [9] = target: T3, OPRK; experiment: cell-based; parameters: host or cells: CHO-K1
[10] = 60 mg single dose, opioid-dependent patients, N = 6, events:subjects (%)
[11] = 120 mg single dose, opioid-dependent patients, N = 6, events:subjects (%)
[12] = 180 mg single dose, opioid-dependent patients, N = 6, events:subjects (%)

Sequence of human OPRM (μ-opioid receptor) (P35372 whole entry): as the sequence (P35372 whole entry) above

## CC[C@H]1CC2C[C@H]3c4[nH]c5ccc(O)cc5c4CCN(C2)C13 [Noribogaine]
[1]
  Ki: 1.52 ± 0.3 µM
[2]; [10]
  TEAE: Catheter Site Infection: 0
  TEAE: Catheter Site Pain: 0
  TEAE: Catheter Site Related Reaction: 0
  TEAE: Cellulitis: 0
  TEAE: Diarrhoea: 0
  TEAE: Dry Mouth: 0
  TEAE: Ear and Labyrinth Disorders: 0
  TEAE: Epistaxis: 0
  TEAE: Euphoric Mood: 0
  TEAE: General Disorders and Administration Site Conditions: 0
  TEAE: Hyperaesthesia: 0
  TEAE: Infections and Infestations: 0
  TEAE: Limb Discomfort: 0
  TEAE: Malaise: 0
  TEAE: Nausea: 0
  TEAE: Oropharyngeal Pain: 0
  TEAE: Pseudoparalysis: 0
  TEAE: Respiratory, Thoracic and Mediastinal Disorders: 0
  TEAE: Rhinorrhoea: 0
  TEAE: Skin Discomfort: 0
  TEAE: Skin Irritation: 0
  TEAE: Skin and Subcutaneous Tissue Disorders: 0
  TEAE: Somnoience: 0
  TEAE: Tinnitus: 0
  TEAE: Tremor: 0
  TEAE: Urinary Tract Infection: 0
  TEAE: Vomiting: 0
[2]; [11]
  TEAE: Back Pain: 0
  TEAE: Catheter Site Infection: 0
  TEAE: Catheter Site Related Reaction: 0
  TEAE: Depressed Mood: 0
  TEAE: Dry Eye: 0
  TEAE: Dyspepsia: 0
  TEAE: Euphoric Mood: 0
  TEAE: Limb Discomfort: 0
  TEAE: Malaise: 0
  TEAE: Musculoskeletal and Connective Tissue Disorders: 0
  TEAE: Psychiatric Disorders: 0
  TEAE: Somnoience: 0
  TEAE: Urinary Tract Infection: 0
[2]; [12]
  TEAE: Catheter Site Infection: 0
  TEAE: Catheter Site Pain: 0
  TEAE: Depressed Mood: 0
  TEAE: Diarrhoea: 0
  TEAE: Dry Eye: 0
  TEAE: Dyspepsia: 0
  TEAE: Ear and Labyrinth Disorders: 0
  TEAE: Epistaxis: 0
  TEAE: Euphoric Mood: 0
  TEAE: Hyperaesthesia: 0
  TEAE: Malaise: 0
  TEAE: Oropharyngeal Pain: 0
  TEAE: Pseudoparalysis: 0
  TEAE: Psychiatric Disorders: 0
  TEAE: Respiratory, Thoracic and Mediastinal Disorders: 0
  TEAE: Rhinorrhoea: 0
  TEAE: Skin Discomfort: 0
  TEAE: Skin Irritation: 0
  TEAE: Skin and Subcutaneous Tissue Disorders: 0
  TEAE: Somnoience: 0
  TEAE: Tinnitus: 0
  TEAE: Tremor: 0
[2]; 60, 120, 180 mg single dose, opioid-dependent participants
  hallucinatory effects: no hallucinatory effects
[3]
  Specificity ΔpKi: 0.4 and 0.3
[4]
  Ki: 0.72 µM and 0.7 µM
Human OPRM [5]
  IC50: 134 ± 17 µM
  Ke: 19 ± 5 µM
  Ke (functional inhibition constant): 19.203 µM
  antagonist potency, OPRM G-protein pathway: 20 µM
  e-coupling: 1.02 and 1.10
Human OPRM [5]; EC50
  EC50: 16.1 µM
Human OPRM [5]; Ke
  Kb: 28 ± 14 µM
Human OPRM [5]; approximated EC50
  EC50: ~16 µM
Human OPRM [5]; pEC50, (Ke): pKe
  Kb: 20 µM
[6]; 3 mg dose group, healthy volunteers
  adverse events reported: five adverse events were reported by two subjects
[6]; 10 mg dose group, healthy volunteers
  adverse events reported: one adverse event was reported by single subjects
[6]; 30 mg dose group, healthy volunteers
  adverse events reported: one adverse event was reported by single subjects
[6]; 3-60 mg, healthy volunteers
  oximetry, capnography, respiratory rate: no changes in oximetry or capnography, or changes in respiratory rate
  vital signs and safety laboratory tests: no changes in vital signs or safety laboratory tests of note
[6]; Dose 3 mg, healthy volunteers
  Adverse events: Mild: Dizziness; also recorded: Epistaxis; also recorded: Headache; also recorded: Back pain
  Adverse events: Moderate: Headache
[6]; Dose 10 mg, healthy volunteers
  Adverse events: Mild: Headache
[6]; Dose 30 mg, healthy volunteers
  Adverse events: Mild: Headache
[6]; any time, all dose groups 3-60 mg, healthy volunteers
  QTcF values: ≤ 500 ms
[6]; one subject dosed with 10 mg, 24 hours post-dosing
  single increase in QTcF: > 60 ms
Human OPRM [7]
  EC50: ~1.15 µM
  Efficacy: 3%
  IC50: ~57 µM
  Ke: ~4.8 µM
  agonism at OPRM β-arrestin-2 recruitment: not an agonist at OPRM
  e-coupling: ~1.10
  inhibition of agonist response (up to): 60-100%
Human OPRM [7]; pEC50, pKe
  Kb: 63.1 µM
OPRK [8]
  Efficacy (Emax): 72%
  Efficacy (inhibition): 25%
  G-protein Pathway e-coupling: 1.72 and 1.08
  IC50: 100 to 300 µM
  e-coupling: 1.08 and 1.22 and 1.72
  own reduced signal level to which rival agonists are leveled down: 70%
OPRK [8]; EC50
  EC50: 8.75 µM and 8.7 µM
OPRK [8]; EC50 (potency)
  EC50: 8.75 µM and 9 µM
OPRK [8]; Ke
  Kb: 15 µM and 24 µM
OPRK [8]; pEC50, pKe
  Kb: 12.6 µM and 39.8 µM
OPRK [8]; read-out: maximal efficacy relative to Dynorphin A
  Emax: 75%
OPRK [9]
  EC50: ~0.265 µM
  IC50: 1.45 ± 1.1 µM
  Kb: 0.251 µM
OPRK [9]; OPRK, Activation
  Beta-Arrestin2 Pathway e-coupling: −0.43
  Beta-Arrestin2 Pathway e-signal: 0.13
OPRK [9]; OPRK, Dynorphin A at EC80
  inhibition of agonist response (up to): ~60%
OPRK [9]; OPRK, Dynorphin A at EC80 (370 nM Dyn-A)
  IC50: 1.45 µM
OPRK [9]; OPRK, Inhibition
  Beta-Arrestin2 Pathway e-coupling: −0.44
  Beta-Arrestin2 Pathway e-signal: 0.60
OPRK [9]; OPRK, activation, % of dynorphin A maximal stimulation
  Efficacy (Emax): 12% and 12.6%
OPRK [9]; OPRK, activation, pKi-pEC50
  e-coupling: −0.43
OPRK [9]; OPRK, inhibition of Dynorphin A at EC80
  Ke: 262 nM
OPRK [9]; OPRK, inhibitory component, pKi-pKe
  e-coupling: −0.44
